{"source": "patent US20020111314A1", "about": "“Novel stimulation of gene expression and protein synthesis of heat shock protein 72/73 (Hsp 70)” (The Trustees of Columbia University, priority 1995, published 2002)", "test_system": "HSF1", "assay": "HSF1 steady-state level and trimerization (Western blot, EGS cross-linking) in HepG2 cells", "type": "cell-based, human", "details": "ALLN 40 μg/ml, 2 hours", "protocol": "HepG2 cells were treated with serum-free MEM containing 1.5% BSA for 2 hours at 37° C. without any additions (lane 1), at 37° C. but containing 40 μg/ml of ALLN in the medium (lane 2), at 37° C. in a medium containing both ALLN and 50 μg/ml of cycloheximide (lane 3), at 42° C. alone (lane 4), or at 42° C. plus cycloheximide in the medium (lane 5). Cell lysates were prepared as described under Experimental Details. The lysates were either directly run on the SDS-PAGE (A) to show the steady-state protein levels of HSF1 or subjected to cross-linking with ethylene glycol bis sucrinimidylsuccinate (EGS) before running the gel (B) to show the oligomeric forms of HSF1. The proteins were then transfered to a nitrocellulose membrane and immunoblotted with anti-human HSF1 antibody. Arrows on the right side indicates the monomeric, dimeric or trimeric forms of HSF1, respectively. This experiment was repeated three times with identical results.\nTotal RNA was prepared using the procedure of Chomczynski and Sacchi (Chomczynski, et al., 1987) and a commercially prepared reagent, TRISOLV™ (Biotecx Laboratories Inc., TX). Equal amounts of tRNA samples (10 μg) were size-fractionated on a 1% agarose-formaldehyde gel according to the methods described (Maniatis, et al., 1982) and transferred to a piece of QIAGEN plus nylon membrane. To determine loading and transfer efficiency, RNA was stained with ethidium bromide before and after transfer. The membrane was baked for 30 min. at 80° C. in vacuo (a vacuum) followed by UV cross-linking. It was then incubated for 4 hours at 65° C. in a prehybridization mixture containing 10% dextran sulfate, 1% SDS, 1M sodium chloride, 50 mM Tris-HCl (pH 7.5) and 100 μg/ml denatured salmon sperm DNA. Hybridization was carried out for 18 hours at 65° C. in the same buffer with a ^32P-labeled (1×10^6 cpm/ml) 40-mer oligonucleotide probe to the untranslated 5′ region of a human hsp70 gene (Oncogene Science). […] The membrane was then washed four times with 2×SSC, 0.1% SDS at room temperature, one time at 65° C. for 30 min., and one time at room temperature again for 5 min., and finally rinsed with 2×SSC at room temperature. This membrane was air dried and exposed to X-ray film at −80° C. for 48 hours. For measurement of the steady-state HSF1 protein levels, whole cell extracts were prepared by lysing the cells directly with 2×SDS-sample buffer (Maniatis, et al., 1982). For chemical cross-linking experiments, whole-cell extracts were prepared as described (Mosser, et al., 1988). Briefly, the cold PBS-washed cell pellets were quickly and repeatedly frozen in liquid nitrogen. […]", "note": "Square brackets hold non-standard residues; d marks the D form. Peptide text beside a SMILES is read from it. Nle = CCCC[C@H](N)C(=O)O"}
{"smiles": "CCCC[C@@H](C=O)NC(=O)[C@H](CC(C)C)NC(=O)[C@H](CC(C)C)NC(C)=O", "note": "[ALLN, N-acetyl-leucyl-leucyl-norleucinal] (Ac-Leu-Leu-[Nle]-aldehyde)", "values": [{"measurement": "oligomeric form of HSF1 after EGS cross-linking", "setting": "270-kDa cross-linked product", "value": "exists as a trimer"}, {"measurement": "steady-state levels of HSF1 in whole cell extracts", "setting": "with or without cycloheximide", "value": "not significantly affected"}]}
